{
  "source": "paper PMC7732020",
  "about": "(Nucleosides, nucleotides & nucleic acids, 2009)",
  "key": {"HIV": {"tested_on": "HIV", "conditions": "isomeric adenine nucleosides with 2′-α-fluoro atom; cited from earlier work"}, "human PBM cells [1]": {"tested_on": "human PBM cells", "conditions": "cited from earlier work"}, "HIV-1 [2]": {"tested_on": "HIV-1", "conditions": "read-out: Anti-HIV-1 activity EC50; PBM cells; taken from literature; cited from earlier work"}, "HIV-1 [3]": {"tested_on": "HIV-1", "experiment": "Anti-HIV-1 activity in human PBM cells", "type": "cell-based", "conditions": "primary human PBM cells; for EC50: read-out: Anti-HIV-1 activity EC50; for EC90: read-out: Anti-HIV-1 activity EC90"}, "human PBM cells [4]": {"tested_on": "human PBM cells"}, "Huh-7 Replicon cells": {"tested_on": "Huh-7 Replicon cells", "experiment": "Toxicity in Huh-7 Replicon cells", "conditions": "read-out: CC50 (toxicity in Huh-7 Replicon cells); replicon assay Huh7 cells"}, "HCV": {"tested_on": "HCV", "experiment": "Anti-HCV activity in replicon assay Huh7 cells", "type": "cell-based, hepatitis C virus", "conditions": "for EC50: read-out: Anti-HCV activity EC50; for EC90: read-out: Anti-HCV activity EC90"}},
  "note": "Like-named read-outs stand apart in the source and are kept apart here.",
  "data": [
    {"smiles": "Nc1ncnc2c1ncn2[C@@H]1O[C@H](CO)[C@@H](F)[C@H]1F", "note": "[2′,3′-dideoxy-2′,3′-difluoro–adenosine]", "values": [
      {"measurement": "antiviral activity", "setting": "HIV", "result": "without antiviral activity"}
    ]},
    {"smiles": "Nc1ncnc2c1ncn2[C@@H]1O[C@H](CO)C[C@H]1F", "note": "[2′-α-FddA, 9-(2′,3′-dideoxy-2′-fluoro-β-D-erythro-pentofuranosyl)adenine]", "values": [
      {"measurement": "antiviral activity", "setting": "HIV", "result": "without antiviral activity"}
    ]},
    {"smiles": "Nc1ncnc2c1ncn2[C@@H]1O[C@H](CO)C[C@@H]1F", "note": "[2′-β-FddA, lodenosine]", "values": [
      {"measurement": "CC50", "setting": "human PBM cells [1]", "result": "> 100", "unit": "µM"},
      {"measurement": "EC50", "setting": "HIV-1 [2]", "result": 4.4, "unit": "µM"}
    ]},
    {"smiles": "Cc1cn([C@H]2C[C@H](N=[N+]=[N-])[C@@H](CO)O2)c(=O)[nH]c1=O", "note": "[AZT, reference compound]", "values": [
      {"measurement": "EC50", "setting": "HIV-1 [3]", "result": 0.0026, "unit": "µM"},
      {"measurement": "EC90", "setting": "HIV-1 [3]", "result": 0.01, "unit": "µM"},
      {"measurement": "CC50", "setting": "human PBM cells [4]", "result": "> 100", "unit": "µM"},
      {"measurement": "CC50", "setting": "Vero cells", "result": 56, "unit": "µM"}
    ]},
    {"smiles": "C[C@@]1(O)[C@H](O)[C@@H](CO)O[C@H]1n1ccc(N)nc1=O", "note": "[Compound 2-C-Me-C, reference compound]", "values": [
      {"measurement": "CC50", "setting": "Huh-7 Replicon cells", "result": "> 10", "unit": "µM"},
      {"measurement": "EC50", "setting": "HCV", "result": 1.3, "unit": "µM"},
      {"measurement": "EC90", "setting": "HCV", "result": 5.4, "unit": "µM"}
    ]},
    {"smiles": "Nc1ncnc2c1ncn2[C@@H]1O[C@H](CO)[C@@H](F)[C@@H]1F", "note": "[Compound 20, 9-(2′,3′-Dideoxy-2′,3′-difluoro-β-D-arabinofuranosyl)adenine]", "values": [
      {"measurement": "CC50", "setting": "Huh-7 Replicon cells", "result": "> 10", "unit": "µM"},
      {"measurement": "EC50", "setting": "HIV-1 [3]", "result": 0.72, "unit": "µM"},
      {"measurement": "EC90", "setting": "HIV-1 [3]", "result": 10.3, "unit": "µM"},
      {"measurement": "EC50", "setting": "HCV", "result": "> 10", "unit": "µM"},
      {"measurement": "EC90", "setting": "HCV", "result": "> 10", "unit": "µM"},
      {"measurement": "CC50", "setting": "human PBM cells [4]", "result": "> 100", "unit": "µM"},
      {"measurement": "CC50", "setting": "CEM cells", "result": "> 100", "unit": "µM"},
      {"measurement": "CC50", "setting": "Vero cells", "result": "> 100", "unit": "µM"}
    ]},
    {"smiles": "Nc1nc(Cl)nc2c1ncn2[C@@H]1O[C@H](CO)[C@@H](F)[C@@H]1F", "note": "[Compound 22, 2-chloro-9-(2′,3′-dideoxy-2,3-difluoro-β-D-arabinofuranosyl)adenine]", "values": [
      {"measurement": "CC50", "setting": "Huh-7 Replicon cells", "result": "> 10", "unit": "µM"},
      {"measurement": "EC50", "setting": "HIV-1 [3]", "result": 14.1, "unit": "µM"},
      {"measurement": "EC90", "setting": "HIV-1 [3]", "result": 46.3, "unit": "µM"},
      {"measurement": "EC50", "setting": "HCV", "result": "> 10", "unit": "µM"},
      {"measurement": "EC90", "setting": "HCV", "result": "> 10", "unit": "µM"},
      {"measurement": "CC50", "setting": "human PBM cells [4]", "result": 13.6, "unit": "µM"},
      {"measurement": "CC50", "setting": "CEM cells", "result": 70.2, "unit": "µM"},
      {"measurement": "CC50", "setting": "Vero cells", "result": "> 100", "unit": "µM"}
    ]}
  ]
}
